Measurements: patent publication US20240366625A1, “COMPOSITIONS CONTAINING AND THERAPIES USING BEMPEDOIC ACID AND TOLVAPTAN” (Esperion Therapeutics, Inc., priority 2021, published 2024)

Tests used:
[1] = system: proximal tubule (PT)-derived Pkd1−/− kidney epithelial cells; assay: Cyst growth of PT-derived Pkd1−/− kidney epithelial cells in 3D cultures (Matrigel); format: cell-based, mouse; conditions: 10 μM forskolin+100 μM IBMX, vs vehicle (DMSO)
Method: The example describes cell growth inhibition studies in 3D cultures of kidney epithelial cells using either of ACLY inhibitors bempedoic acid or SB-204990. […] Cells were grown in Matrigel 12 days and treated with 10 μM forskolin+100 μM IBMX for 11 days, and then treated with either vehicle (DMSO; CON), 500 μM metformin, 100 μM ETC-1002 (bempedoic acid) or 30 μM SB-204990 either alone or in combination as shown for the last 3 days (FIG. 2A). […] Error bars indicate 95% confidence interval (CI) (*P<0.05, **P<0.01, ***P<0.001 for the indicated comparisons by one-way ANOVA and Tukey's multiple comparison test) (FIG. 2B).

[2] = system: inner medullary collecting duct (IMCD)-derived Pkd1−/− kidney epithelial cells; assay: Cyst growth of IMCD-derived Pkd1−/− kidney epithelial cells in 3D cultures (Matrigel); format: cell-based, mouse; conditions: 10 μM forskolin+100 μM IBMX
Method: ETC-1002 inhibited cyst growth of inner medullary collecting duct (IMCD)-derived Pkd1−/− kidney epithelial cells in 3D cultures. Cells were grown in Matrigel for 6 days and treated with 10 μM forskolin+100 μM IBMX±500 μM metformin and/or 100 μM of ETC-1002 (bempedoic acid) for the last 3 days alone or in combination as shown (FIG. 2C). […] Error bars indicate 95% CI (*P<0.05, **P<0.01, ***P<0.001 for the indicated comparisons by one-way ANOVA and Tukey's multiple comparison test) (FIG. 2D).

[3] = system: early onset, rapidly developing ADPKD mouse model Pkd1fl/fl;Pax8-rtTA;Tet-O-Cre; assay: Early onset, rapidly developing ADPKD mouse model: kidney size, kidney weight to body weight, BUN; format: in vivo; conditions: for BUN: vehicle 107±14; for kidney size (H&E stains of kidney sections) compared to vehicle control: oral gavage daily P12-P21, P22
Method: The example describes characterization of the early onset, rapidly developing ADPKD mouse model Pkd1fl/fl;Pax8-rtTA;Tet-O-Cre homozygous in the C57BL/6 background.
(§1) Doxycycline was administered intraperitoneally (50 mg/kg/day) on postnatal days 10 and 11 (P10 and P11) to induce Pkd1 deletion and rapidly progressive PKD in the Cre+ mice. Mice were treated with the various drugs and combinations or vehicle by oral gavage daily from P12-P21 and were then sacrificed at P22 of age to harvest kidneys for histology, weight measurements and blood urea nitrogen (BUN) measurements. Treatments were vehicle, tolvaptan 30 mg/kg/d, tolvaptan 100 mg/kg/d, bempedoic acid 30 mg/kg/d, tolvaptan 30 mg/kg/d+bempedoic acid 30 mg/kg/d, and tolvaptan 100 mg/kg/d+bempedoic acid 30 mg/kg/d; also included was an uninduced, untreated group without PKD. Each treatment group consisted of 3-6 mice.

phosphorylated ACLY = assay: Immunoblot of kidney lysates, early onset ADPKD mice: pACLY; format: in vivo, mouse; conditions: bempedoic acid 30 mg/kg/d alone or in combination with tolvaptan; P22
Method: as §1
(§2) At the end of the study, kidney sample lysates were prepared in buffer and separated using SDS-PAGE. Separated proteins were then electrophoretically transferred to membranes. Nonspecific binding was blocked, and membranes were probed with antibodies against phosphorylated (Thr172)-AMPK, phosphorylated P70S6K, phosphorylated ERK, phosphorylated ACLY, total KIM-1, and total neutrophil gelatinase-associated lipocalin (NGAL). Membranes were incubated with appropriate detection antibodies and relative signal intensity determined. Protein levels were normalized to total protein levels. […] These effects of bempedoic acid occurred both alone and in combination with tolvaptan therapy.

[4] = system: phosphorylated (Thr172)-AMPK; assay: Immunoblot of kidney lysates, early onset ADPKD mice: pAMPK; format: in vivo, mouse; conditions: bempedoic acid 30 mg/kg/d alone or in combination with tolvaptan; P22
Method: as §1, §2

phosphorylated P70S6K = assay: Immunoblot of kidney lysates, early onset ADPKD mice: pP70S6K (mTOR pathway); format: in vivo, mouse; conditions: bempedoic acid 30 mg/kg/d alone or in combination with tolvaptan; P22
Method: as §1, §2

phosphorylated ERK = assay: Immunoblot of kidney lysates, early onset ADPKD mice: pERK; format: in vivo, mouse; conditions: bempedoic acid 30 mg/kg/d alone or in combination with tolvaptan; P22
Method: as §1, §2

[5] = system: total neutrophil gelatinase-associated lipocalin (NGAL); assay: Immunoblot of kidney lysates, early onset ADPKD mice: NGAL; format: in vivo, mouse; conditions: P22
Method: as §1, §2

total KIM-1 = assay: Immunoblot of kidney lysates, early onset ADPKD mice: KIM-1; format: in vivo, mouse; conditions: bempedoic acid 30 mg/kg/d; P22
Method: as §1, §2

pACLY = assay: Immunoblot of liver lysates, early onset ADPKD mice: pACLY; format: in vivo, mouse; conditions: bempedoic acid 30 mg/kg/d alone or in combination with tolvaptan 100 mg/kg/d; P22
Method: as §1
(§3) Liver sample lysates were prepared in buffer and separated using SDS-PAGE. Separated proteins were then electrophoretically transferred to membranes. Nonspecific binding was blocked and membranes were probed with antibodies against pACLY, pThr172AMPKα, PGC1alpha, FATP2, pACC, and cleaved Cas3. Membranes were incubated with appropriate detection antibodies and relative signal intensity determined. Target protein levels were normalized to total protein levels.

FATP2 = assay: Immunoblot of liver lysates, early onset ADPKD mice: FATP2; format: in vivo, mouse; conditions: bempedoic acid 30 mg/kg/d alone or in combination with tolvaptan 100 mg/kg/d; P22
Method: as §1, §3

pThr172AMPKα = assay: Immunoblot of liver lysates, early onset ADPKD mice: pAMPK; format: in vivo, mouse; conditions: bempedoic acid 30 mg/kg/d; P22
Method: as §1, §3

pACC = assay: Immunoblot of liver lysates, early onset ADPKD mice: pACC; format: in vivo, mouse; conditions: bempedoic acid 30 mg/kg/d; P22
Method: as §1, §3

[6] = system: late onset, slowly developing ADPKD mouse model Pkd1fl/fl;Pax8-rtTA;Tet-On-Cre; assay: Late onset, slowly developing ADPKD mouse model: kidney weight to body weight; format: in vivo; conditions: bempedoic acid 30 mg/kg/d mixed with food from P30
Method: The example describes characterization of the late onset, slowly developing ADPKD mouse model Pkd1fl/fl;Pax8-rtTA;Tet-On-Cre when treated with bempedoic acid.
Doxycycline was administered intraperitoneally (50 mg/kg/day) on postnatal days 27-29 (P27-P29) and again on P43 and P57 to induce later Pkd1 knockout and slowly progressive PKD in the Cre+ mice. Mice were then sacrificed at […], P60, and P120 for measurements of total kidney weight to body weight ratios.

SMILES: CC(C)(CCCCCC(O)CCCCCC(C)(C)C(=O)O)C(=O)O [Bempedoic acid]
- cyst area relative to control ([1]; 100 μM ETC-1002 for the last 3 days): significantly reduced cyst area
- cyst area relative to control ([2]; 100 μM ETC-1002 alone for the last 3 days): significantly reduced cyst area
- total kidney weight to body weight ratio ([3]; bempedoic acid 30 mg/kg/d oral gavage P12-P21, P22, vehicle 11.9±1.2%): 6.9±0.4%
- BUN ([3]; bempedoic acid 30 mg/kg/d oral gavage P12-P21, P22): 59 ± 13 mg/dL
- kidney size (H&E stains of kidney sections) compared to vehicle control [3]: marked reduction in kidney size
- ACLY activity (pACLY relative to total protein), kidney lysate (phosphorylated ACLY): reduced ACLY
- AMPK activity (pThr172 relative to total protein), kidney lysate [4]: stimulated AMPK
- mTOR signaling pathway (pP70S6K relative to total protein), kidney lysate (phosphorylated P70S6K): inhibited
- ERK signaling pathway (pERK relative to total protein), kidney lysate (phosphorylated ERK): inhibited
- NGAL signaling pathway (NGAL relative to total protein), kidney lysate ([5]; bempedoic acid 30 mg/kg/d alone or in combination with tolvaptan): inhibited
- reduction of NGAL expression compared with reduction of KIM-1 expression, kidney lysate ([5]; bempedoic acid 30 mg/kg/d): to a lesser extent
- reduction of KIM-1 expression (marker of kidney injury), kidney lysate (total KIM-1): > 70%
- pACLY (activation marker) relative to total protein, liver lysate (pACLY): inhibited pACLY
- FATP2 expression relative to total protein, liver lysate (FATP2): increased FATP2 expression
- AMPK activity (pThr172 relative to total protein), liver lysate (pThr172AMPKα): increased AMPK activity
- phosphorylation of AMPK target ACC in liver tissue (pACC): promoted phosphorylation
- total kidney weight to body weight ratio ([6]; P60, male mice): significantly reduced total kidney weight to body weight ratio
- total kidney weight to body weight ratio ([6]; P120, male and female mice): a trend that was also observed

SMILES: O=C(O)C[C@@]1(O)C[C@@H](CCCCCCc2ccc(Cl)cc2Cl)OC1=O [SB-204990]
- cyst area relative to control ([1]; 30 μM SB-204990 for the last 3 days): significantly reduced cyst area

SMILES: CN(C)C(=N)N=C(N)N [metformin]
- cyst area relative to control ([1]; 500 μM metformin for the last 3 days): significantly reduced cyst area
- cyst area relative to control ([2]; 500 μM metformin alone for the last 3 days): significantly reduced cyst area

SMILES: Cc1ccccc1C(=O)Nc1ccc(C(=O)N2CCCC(O)c3cc(Cl)ccc32)c(C)c1 (centres unmarked) [tolvaptan, Tolvaptan]
- kidney size (H&E stains of kidney sections) compared to vehicle control [3]: marked reduction in kidney size
- BUN ([3]; tolvaptan 30 mg/kg/d oral gavage P12-P21, P22): 68 ± 8 mg/dL
- total kidney weight to body weight ratio ([3]; tolvaptan 30 mg/kg/d oral gavage P12-P21, P22, vs vehicle): reduced total kidney weight to body weight ratio
- total kidney weight to body weight ratio ([3]; tolvaptan 100 mg/kg/d oral gavage P12-P21, P22, vehicle 11.9±1.2%): 7.8±1.0%
- BUN ([3]; tolvaptan 100 mg/kg/d oral gavage P12-P21, P22): 35 ± 7 mg/dL
